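A five-concentration, 48-hour dose response in 96-well plates underlies each endpoint, interpolated linearly between surrounding concentrations. GI50: concentration for 50% inhibition of growth.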 Calls of active or inactive are those of the source. No stated cut-off is given here; in the data, active = GI50 up to about 1.1 µM and inactive = higher.
Legend:
Assay in all cases: DTP human tumour cell line panel, 48 h
BT-549 = system: BT-549
MDA-MB-435 = system: MDA-MB-435
SN12C = system: SN12C
U-251 = system: U-251
SNB-75 = system: SNB-75
TK-10 = system: TK-10
SF-295 = system: SF-295
SK-OV-3 = system: SK-OV-3
786-0 = system: 786-0
A549 = system: A549
OVCAR-3 = system: OVCAR-3
NCI-H460 = system: NCI-H460
MDA-N = system: MDA-N
SK-MEL-5 = system: SK-MEL-5
OVCAR-4 = system: OVCAR-4
CAKI-1 = system: CAKI-1
CCRF-CEM = system: CCRF-CEM
HOP-92 = system: HOP-92
RXF 393 = system: RXF 393

| SMILES | GI50 (BT-549) | GI50 (MDA-MB-435) | GI50 (SN12C) | GI50 (U-251) | GI50 (SNB-75) | GI50 (TK-10) | GI50 (SF-295) | GI50 (SK-OV-3) | GI50 (786-0) | GI50 (A549) | GI50 (OVCAR-3) | GI50 (NCI-H460) | GI50 (MDA-N) | GI50 (SK-MEL-5) | GI50 (OVCAR-4) | GI50 (CAKI-1) | GI50 (CCRF-CEM) | GI50 (HOP-92) | GI50 (RXF 393) |
| --- | --- | --- | --- | --- | --- | --- | --- | --- | --- | --- | --- | --- | --- | --- | --- | --- | --- | --- | --- |
| Cc1ccc(SCC(OCn2cnc3c(Cl)nc(N)nc32)[C@H](C)F)cc1 (stereo partly drawn) | 52.4 µM (inactive) | > 100 µM (inactive) | 43.7 µM (inactive) | 98.4 µM (inactive) | > 100 µM (inactive) | > 100 µM (inactive) | 53.7 µM (inactive) | > 100 µM (inactive) | 85.1 µM (inactive) | 69.5 µM (inactive) | > 100 µM (inactive) | 78.2 µM (inactive) | > 100 µM (inactive) | 18.1 µM (inactive) | 71.3 µM (inactive) | > 100 µM (inactive) | 39.1 µM (inactive) | 63.7 µM (inactive) |  |
| Cc1cc2c(O)c(c1)CN(Cc1ccccc1)Cc1cc(C)cc(c1O)CN(Cc1ccccc1)Cc1cc(C)cc(c1O)CN(Cc1ccccc1)C2 | > 100 µM (inactive) | > 100 µM (inactive) | > 100 µM (inactive) | > 100 µM (inactive) | 50.8 µM (inactive) | > 100 µM (inactive) | > 100 µM (inactive) | > 100 µM (inactive) | > 100 µM (inactive) | > 100 µM (inactive) | > 100 µM (inactive) | > 100 µM (inactive) | > 100 µM (inactive) | > 100 µM (inactive) | > 100 µM (inactive) | > 100 µM (inactive) | > 100 µM (inactive) |  | 75.2 µM (inactive) |
| CCOC(=O)C(CS)NC(=O)CCCCCCCC(=O)O (stereo not drawn) | > 100 µM (inactive) | > 100 µM (inactive) | > 100 µM (inactive) | > 100 µM (inactive) | 0.724 µM (active) | > 100 µM (inactive) | > 100 µM (inactive) | > 100 µM (inactive) | > 100 µM (inactive) | > 100 µM (inactive) | > 100 µM (inactive) | > 100 µM (inactive) | > 100 µM (inactive) | > 100 µM (inactive) | > 100 µM (inactive) | > 100 µM (inactive) | 41.5 µM (inactive) | > 100 µM (inactive) |  |
| CC1(C(O)c2ccccc2)CN(C(C)(C)C)C(=O)/C1=C\Sc1ccccc1 (stereo not drawn) | 59.6 µM (inactive) | 30.1 µM (inactive) | 33.9 µM (inactive) | 22.6 µM (inactive) |  | > 100 µM (inactive) | 28.3 µM (inactive) | 44.9 µM (inactive) | 46 µM (inactive) | 20.2 µM (inactive) | 21.2 µM (inactive) |  | 39.1 µM (inactive) | 43.7 µM (inactive) | 27.4 µM (inactive) | > 100 µM (inactive) | 23.9 µM (inactive) | 1.88 µM (inactive) |  |
| O=c1[nH]/c(=C/c2cccs2)c(=O)[nH]/c1=C/c1ccc(OCc2ccccc2)cn1 | 0.0239 µM (active) | < 0.01 µM (active) | 0.064 µM (active) | 0.0631 µM (active) | 0.027 µM (active) | 1.74 µM (inactive) | 0.0206 µM (active) | 0.0426 µM (active) | 0.061 µM (active) | 0.144 µM (active) | < 0.0146 µM (active) | 0.0351 µM (active) | 0.0164 µM (active) | 0.0515 µM (active) | 0.0836 µM (active) | 0.0312 µM (active) | 0.0327 µM (active) |  | 0.0506 µM (active) |
| O=c1c(C(c2ccc([N+](=O)[O-])cc2)c2c(O)oc3ccccc3c2=O)c(O)oc2ccccc12 | > 100 µM (inactive) | > 100 µM (inactive) | > 100 µM (inactive) | > 100 µM (inactive) | 86.5 µM (inactive) | > 100 µM (inactive) |  |  | > 100 µM (inactive) |  | > 100 µM (inactive) | > 100 µM (inactive) | > 100 µM (inactive) | > 100 µM (inactive) | > 100 µM (inactive) | > 100 µM (inactive) | > 100 µM (inactive) | > 100 µM (inactive) |  |

Reference: ChEMBL document CHEMBL1201862, “PubChem BioAssay data set” (2004)
